One assay has as its system E. coli BL21(DE3). The experiment in a line: Determination of antibacterial activity (inhibition of bacterial growth, absorbance at 600 nm). The note with it: Escherichia coli, 24 hours at 37° C. Format: cell-based. The method, then: Protocols for the measurement of IC50 for the evaluation of antibacterial activity followed standard methods [Antibiotics in Laboratory Medicine, V. Lorian, Ed. Fourth edition, 1996. Williams and Wilkins; Baltimore, Md.]. Briefly, purified (S)-29, antibiotic control, or vehicle (DMSO) was subjected to serial dilution into Luria-Bertani growth medium in a manner that placed 0.1 mL aliquots of medium-plus-vehicle or medium-plus-antibiotic into each well of a sterile polystyrene 96-well plate. To aid compound dissolution, medium-analyte mixtures were warmed to 37° C. for eight hours with agitation. Bacterial cells, [E. coli: hsdS gal (λcIts857 ind 1 Sam7 nin5 lacUV5-T7 gene 1); BL21(DE3)] were grown in to mid-log phase at 37° C. The culture was then diluted 1:10^5 into prewarmed growth medium. Aliquots of diluted bacterial culture (0.1 mL) were then combined with the pre-aliquotted medium-analyte mixtures to yield 0.2 mL inoculated cultures containing no more than 2.5% DMSO. The plated inoculate series were then grown for twenty-four hours at 37° C. with orbital shaking. Bacterial cell growth was quantitated by measuring absorbance at 600 nm. IC50 for the inhibition of bacterial growth was defined as the concentration of drug at which cell growth was half maximal at twenty-four hours.

Assay [1] addresses T1, E. coli dihydrofolate reductase (DHFRec) (Escherichia coli, UniProt P0ABQ4).
T1 construct: made in house
The assay is described as follows: ALIS affinity selection-mass spectrometry with E. coli DHFR. Format: binding. From the text:
(§1) Utilizing the ALIS techniques described above, the affinity of ligands for DHFRec was compared to the affinity of the same ligands for the bovine (B. taurus) DHFR enzyme.

In assay [2] the target is T2, bovine (B. taurus) DHFR enzyme (Bos taurus, UniProt P00376).
T2 sequence (P00376 1-187): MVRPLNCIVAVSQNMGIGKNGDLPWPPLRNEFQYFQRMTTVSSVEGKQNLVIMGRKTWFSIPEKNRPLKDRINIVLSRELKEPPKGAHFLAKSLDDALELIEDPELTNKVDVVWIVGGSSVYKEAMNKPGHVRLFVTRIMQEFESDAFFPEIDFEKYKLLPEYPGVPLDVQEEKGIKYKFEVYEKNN
The assay is described as follows: ALIS affinity selection with bovine DHFR. Format: binding. The note with it: FIG. 9.
Source text: as §1

The structures appear in SMILES notation. “And” between values parts separate entries of the source, which are not always exact repeats. Identical values can stand only once.

`COc1ccc([C@@H](C)NC[C@H](O)COc2cc(C(=O)N3CCN(c4cccc(Cl)c4)CC3)on2)cc1` [(S)-29]: the IC50 with E. coli BL21(DE3) is 56 µM and 29 µg/mL. The “affinity for DHFRec (ALIS)” value in assay [1] (E. coli enzyme, FIG. 9) is “selectively binds to the E. coli enzyme”. Further, the “specificity for E. coli DHFR over bovine DHFR” value in assay [1] (pathogen vs. host DHFR, FIG. 9) is “exhibits specificity for E. coli DHFR over bovine (B. taurus) DHFR”. Moreover, the “affinity for bovine (B. taurus) DHFR (ALIS)” value in assay [2] is reported as “no detectable affinity”.
Take `COc1ccc([C@@H](C)NCC(O)COc2cc(C(=O)N3CCN(c4cccc(Cl)c4)CC3)on2)cc1` (some centres unmarked) [Core 29]: the “ligand identified by affinity selection LC-MS-MS” value in assay [1] (sublibrary from Core 6 with building blocks 15 and 21) is given as “matched that assigned to regioisomer 29”.

As usually defined, the IC50 is the concentration at which inhibition is half-maximal. Higher therefore signals weaker potency.

For the origin of these results see US20020077491A1, “Methods for forming combinatorial libraries combining amide bond formation with epoxide opening” (priority 2000, published 2002).
